Laboratory results from patent US20230151003A1, “COMPOUNDS AND METHODS OF USE” (Exelixis, Inc., priority 2020, published 2023).

Target: T1, Mer (Homo sapiens, UniProt Q12866)
T1 construct: host or cells: 293A cells (Thermo Fisher #R70507)
T1 sequence (Q12866 21-999): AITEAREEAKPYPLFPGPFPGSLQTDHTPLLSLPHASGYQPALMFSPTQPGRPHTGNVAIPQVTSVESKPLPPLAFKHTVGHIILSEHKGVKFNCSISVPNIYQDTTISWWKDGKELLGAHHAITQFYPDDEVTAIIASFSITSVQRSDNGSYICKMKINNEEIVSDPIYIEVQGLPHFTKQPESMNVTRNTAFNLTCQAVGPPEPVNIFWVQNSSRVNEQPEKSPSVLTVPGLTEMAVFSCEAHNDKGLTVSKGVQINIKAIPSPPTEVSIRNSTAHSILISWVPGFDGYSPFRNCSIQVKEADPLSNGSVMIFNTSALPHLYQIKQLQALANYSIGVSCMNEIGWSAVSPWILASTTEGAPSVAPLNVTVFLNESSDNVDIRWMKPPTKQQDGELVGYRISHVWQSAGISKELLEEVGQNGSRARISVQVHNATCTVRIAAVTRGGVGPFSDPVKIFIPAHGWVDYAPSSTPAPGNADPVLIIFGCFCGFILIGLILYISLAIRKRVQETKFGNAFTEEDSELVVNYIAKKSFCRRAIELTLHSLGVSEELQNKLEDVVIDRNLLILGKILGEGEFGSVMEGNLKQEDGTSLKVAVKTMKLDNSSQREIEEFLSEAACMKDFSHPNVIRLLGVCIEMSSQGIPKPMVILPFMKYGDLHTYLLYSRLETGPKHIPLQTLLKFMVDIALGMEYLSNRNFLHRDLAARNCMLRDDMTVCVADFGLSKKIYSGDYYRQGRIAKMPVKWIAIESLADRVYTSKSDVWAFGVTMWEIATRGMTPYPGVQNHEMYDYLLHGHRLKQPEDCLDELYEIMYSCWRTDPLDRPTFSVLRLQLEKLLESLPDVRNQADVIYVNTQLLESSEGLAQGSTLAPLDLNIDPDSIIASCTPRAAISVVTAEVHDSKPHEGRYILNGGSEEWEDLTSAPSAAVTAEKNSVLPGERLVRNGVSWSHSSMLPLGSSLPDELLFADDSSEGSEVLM
Assay: Mer autophosphorylation ELISA in transient transfected 293A cells
Format: cell-based
Conditions: Table 3 Cellular Activities; MERTK-transfected 293A cells, phospho-Mer ELISA
Summary of the method: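 Phospho-Mer quantified by ELISA in lysates of transiently MERTK-transfected 293A cells after 1 h exposure to an 8-point compound series, serum-free, 0.3% DMSO. Activity normalized between DMSO-treated (100%) and reference inhibitor-treated (0%) lysates; IC50 via 4-parameter nonlinear regression.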

SMILES | IC50
COc1cc2nccc(Oc3ccc(NC(=O)c4cccn(-c5ccc(F)cn5)c4=O)cc3F)c2nc1OC [Compound 42, N-[4-[(6,7-Dimethoxy-1,5-naphthyridin-4-yl)oxy]-3-fluorophenyl]-1-(5-fluoropyridin-2-yl)-2-oxopyridine-3-carboxamide] | ≤ 100 nM
COc1cc2nccc(Oc3ccc(NC(=O)c4cn(C)c(C)c(-c5ccc(F)cn5)c4=O)cc3)c2nc1OC [Compound 86, N-[4-[(6,7-Dimethoxy-1,5-naphthyridin-4-yl)oxy]phenyl]-5-(5-fluoropyridin-2-yl)-1,6-dimethyl-4-oxopyridine-3-carboxamide] | ≤ 100 nM
COc1cnc2c(Oc3ccc(NC(=O)c4c(C)nc(C)c(-c5ccc(F)cn5)c4O)cc3F)ccnc2c1 [Compound 217, N-[3-Fluoro-4-[(7-methoxy-1,5-naphthyridin-4-yl)oxy]phenyl]-5-(5-fluoropyridin-2-yl)-4-hydroxy-2,6-dimethylpyridine-3-carboxamide] | ≤ 100 nM
COc1cc2nccc(Oc3ccc(NC(=O)c4cc(C(C)=O)c(C)n(-c5ccc(F)cn5)c4=O)cc3F)c2nc1OC [Compound 59, 5-Acetyl-N-[4-[(6,7-dimethoxy-1,5-naphthyridin-4-yl)oxy]-3-fluorophenyl]-1-(5-fluoropyridin-2-yl)-6-methyl-2-oxopyridine-3-carboxamide] | ≤ 100 nM
COc1cc2nccc(Oc3ccc(NC(=O)c4c(C)nc(C)c(-c5ccc(F)cn5)c4O)cc3)c2nc1OC [Compound 216, N-[4-[(6,7-Dimethoxy-1,5-naphthyridin-4-yl)oxy]phenyl]-5-(5-fluoropyridin-2-yl)-4-hydroxy-2,6-dimethylpyridine-3-carboxamide] | ≤ 100 nM
COc1ccc2nccc(Oc3ccc(NC(=O)c4ccc(C)n(-c5ccc(F)cn5)c4=O)cc3F)c2c1 [Compound 49, N-[3-Fluoro-4-(6-methoxyquinolin-4-yl)oxyphenyl]-1-(5-fluoropyridin-2-yl)-6-methyl-2-oxopyridine-3-carboxamide] | ≤ 100 nM
COc1ccc2nccc(Oc3ccc(NC(=O)c4ccc(C)n(-c5ccc(F)cn5)c4=O)cc3F)c2n1 [Compound 47, N-[3-Fluoro-4-[(6-methoxy-1,5-naphthyridin-4-yl)oxy]phenyl]-1-(5-fluoropyridin-2-yl)-6-methyl-2-oxopyridine-3-carboxamide] | ≤ 100 nM
COc1cc2nccc(Oc3ccc(NC(=O)c4ccc(C)n(-c5ccc(F)cn5)c4=O)cc3)c2nc1OC [Compound 44, N-[4-[(6,7-Dimethoxy-1,5-naphthyridin-4-yl)oxy]phenyl]-1-(5-fluoropyridin-2-yl)-6-methyl-2-oxopyridine-3-carboxamide] | ≤ 100 nM
COc1ccc2nccc(Oc3ccc(NC(=O)c4ccc(C)n(-c5ncc(F)cc5C)c4=O)cc3F)c2n1 [Compound 53, N-[3-Fluoro-4-[(6-methoxy-1,5-naphthyridin-4-yl)oxy]phenyl]-1-(5-fluoro-3-methylpyridin-2-yl)-6-methyl-2-oxopyridine-3-carboxamide] | ≤ 100 nM
COc1cc2nccc(Oc3ccc(NC(=O)c4c(C)nc(C)c(-c5ccc(F)cn5)c4O)cc3F)c2nc1OC [Compound 218, N-[4-[(6,7-Dimethoxy-1,5-naphthyridin-4-yl)oxy]-3-fluorophenyl]-5-(5-fluoropyridin-2-yl)-4-hydroxy-2,6-dimethylpyridine-3-carboxamide] | ≤ 100 nM

Second part, the compound after the results:

IC50 | SMILES
300 to 1000 nM | COc1cnc2c(Oc3ccc(NC(=O)c4cc(C(C)=O)c(C)n(-c5ccco5)c4=O)cc3F)ccnc2c1 [Compound 238, 5-Acetyl-N-[3-fluoro-4-[(7-methoxy-1,5-naphthyridin-4-yl)oxy]phenyl]-1-(furan-2-yl)-6-methyl-2-oxopyridine-3-carboxamide]
≤ 100 nM | COc1cc2nccc(Oc3ccc(NC(=O)c4c(C)ncc(-c5cccnc5)c4O)cc3F)c2nc1OC [Compound 228, N-[4-[(6,7-Dimethoxy-1,5-naphthyridin-4-yl)oxy]-3-fluorophenyl]-4-hydroxy-2-methyl-5-pyridin-3-ylpyridine-3-carboxamide]
≤ 100 nM | COc1cc2nccc(Oc3ccc(NC(=O)c4cnc(C)c(-c5cccs5)c4O)cc3)c2nc1OC [Compound 256, N-[4-[(6,7-Dimethoxy-1,5-naphthyridin-4-yl)oxy]phenyl]-4-hydroxy-6-methyl-5-thiophen-2-ylpyridine-3-carboxamide]
≤ 100 nM | COc1cc2nccc(Oc3ccc(NC(=O)c4c5n(cc(-c6ccco6)c4=O)CCOC5)cc3)c2nc1OC [Compound 298, N-[4-[(6,7-Dimethoxy-1,5-naphthyridin-4-yl)oxy]phenyl]-7-(furan-2-yl)-8-oxo-3,4-dihydro-1H-pyrido[2,1-c][1,4]oxazine-9-carboxamide]
≤ 100 nM | COc1cc2nccc(Oc3ccc(NC(=O)c4cn(CCF)c(C)c(-c5cccs5)c4=O)cc3F)c2nc1OC [Compound 327, N-[4-[(6,7-Dimethoxy-1,5-naphthyridin-4-yl)oxy]-3-fluorophenyl]-1-(2-fluoroethyl)-6-methyl-4-oxo-5-thiophen-2-ylpyridine-3-carboxamide]
≤ 100 nM | COc1cc2nccc(Oc3ccc(NC(=O)c4ccc(C)n(-c5ccnc(O)c5)c4=O)cc3F)c2nc1OC [Compound 232, N-[4-[(6,7-Dimethoxy-1,5-naphthyridin-4-yl)oxy]-3-fluorophenyl]-1-(2-hydroxypyridin-4-yl)-6-methyl-2-oxopyridine-3-carboxamide]
≤ 100 nM | COCCOc1cc2nccc(Oc3ccc(NC(=O)c4c(C)n(C)c(C)c(-c5coc6ccccc56)c4=O)cc3F)c2nc1OC [Compound 264, 5-(1-Benzofuran-3-yl)-N-[3-fluoro-4-[[6-methoxy-7-(2-methoxyethoxy)-1,5-naphthyridin-4-yl]oxy]phenyl]-1,2,6-trimethyl-4-oxopyridine-3-carboxamide]
≤ 100 nM | COc1cc2nccc(Oc3ccc(NC(=O)c4ccc(C)n(-c5cccnc5)c4=O)cc3F)c2nc1OC [Compound 222, N-[4-[(6,7-Dimethoxy-1,5-naphthyridin-4-yl)oxy]-3-fluorophenyl]-6-methyl-2-oxo-1-pyridin-3-ylpyridine-3-carboxamide]
≤ 100 nM | COc1cc2nccc(Oc3ccc(NC(=O)c4cc(C(C)=O)c(C)n(-c5ccco5)c4=O)cc3F)c2nc1OC [Compound 236, 5-Acetyl-N-[4-[(6,7-dimethoxy-1,5-naphthyridin-4-yl)oxy]-3-fluorophenyl]-1-(furan-2-yl)-6-methyl-2-oxopyridine-3-carboxamide]
≤ 100 nM | COc1cc2c(Oc3ccc(NC(=O)c4c(C)ncc(-c5ccccn5)c4O)cc3F)ccnc2cn1 [Compound 223, N-[3-Fluoro-4-[(6-methoxy-1,7-naphthyridin-4-yl)oxy]phenyl]-4-hydroxy-2-methyl-5-pyridin-2-ylpyridine-3-carboxamide]
≤ 100 nM | COc1cc2nccc(Oc3ccc(NC(=O)c4c5n(cc(-c6ccoc6)c4=O)CCOC5)cc3F)c2nc1OC [Compound 306, N-[4-[(6,7-Dimethoxy-1,5-naphthyridin-4-yl)oxy]-3-fluorophenyl]-7-(furan-3-yl)-8-oxo-3,4-dihydro-1H-pyrido[2,1-c][1,4]oxazine-9-carboxamide]
≤ 100 nM | COc1cc2nccc(Oc3ccc(NC(=O)c4ccc(C)n(-c5ccnc(F)c5)c4=O)cc3F)c2nc1OC [Compound 233, N-[4-[(6,7-Dimethoxy-1,5-naphthyridin-4-yl)oxy]-3-fluorophenyl]-1-(2-fluoropyridin-4-yl)-6-methyl-2-oxopyridine-3-carboxamide]
≤ 100 nM | COc1cc2nccc(Oc3ccc(NC(=O)c4c5n(cc(-c6cc(C)cs6)c4=O)CCOC5)cc3F)c2nc1OC [Compound 302, N-[4-[(6,7-Dimethoxy-1,5-naphthyridin-4-yl)oxy]-3-fluorophenyl]-7-(4-methylthiophen-2-yl)-8-oxo-3,4-dihydro-1H-pyrido[2,1-c][1,4]oxazine-9-carboxamide]
≤ 100 nM | COc1cc2nccc(Oc3ccc(NC(=O)c4cnc(C)c(-c5ccco5)c4O)cc3)c2cc1OC [Compound 258, N-[4-(6,7-Dimethoxyquinolin-4-yl)oxyphenyl]-5-(furan-2-yl)-4-hydroxy-6-methylpyridine-3-carboxamide]
≤ 100 nM | COCCOc1cc2nccc(Oc3ccc(NC(=O)c4c(C)n(C)c(C)c(-c5ccco5)c4=O)cc3F)c2nc1OC [Compound 254, N-[3-Fluoro-4-[[6-methoxy-7-(2-methoxyethoxy)-1,5-naphthyridin-4-yl]oxy]phenyl]-5-(furan-2-yl)-1,2,6-trimethyl-4-oxopyridine-3-carboxamide]
